# Measurements published in ChEMBL document CHEMBL4308841, “Synthesis, in vitro antiproliferative activity, and kinase inhibitory effects of pyrazole-containing diarylureas and diarylamides” (Eur J Med Chem, 2018).
# Tests used:
# T47D = assay: Growth inhibition of human T47D cells assessed as cell growth at 1 uM incubated for 48 hrs by sulforhodamine B assay relative to control; type: functional; conditions: read-out: Activity
# 786-0 [1] = assay: Growth inhibition of human 786-0 cells incubated for 48 hrs by sulforhodamine B assay; type: functional, cell-based; conditions: 786-0, 48 h
# BT-549 [2] = assay: Growth inhibition of human BT549 cells assessed as cell growth at 0.01 uM incubated for 48 hrs by sulforhodamine B assay relative to control; type: functional; conditions: BT-549, 48 h, read-out: Activity
# MDA-MB-231 [3] = assay: Growth inhibition of human MDA-MB-231 cells assessed as cell growth at 100 uM incubated for 48 hrs by sulforhodamine B assay relative to control; type: functional; conditions: MDA-MB-231, 48 h, read-out: Activity
# RXF 393 = assay: Growth inhibition of human RXF393 cells assessed as cell growth at 1 uM incubated for 48 hrs by sulforhodamine B assay relative to control; type: functional; conditions: RXF 393, 48 h, read-out: Activity
# OVCAR-4 = assay: Growth inhibition of human OVCAR4 cells assessed as cell growth at 0.1 uM incubated for 48 hrs by sulforhodamine B assay relative to control; type: functional; conditions: OVCAR-4, 48 h, read-out: Activity
# SNB-19 = assay: Growth inhibition of human SNB19 cells assessed as cell growth at 100 uM incubated for 48 hrs by sulforhodamine B assay relative to control; type: functional; conditions: SNB-19, 48 h, read-out: Activity
# SF-295 = assay: Growth inhibition of human SF295 cells assessed as cell growth at 1 uM incubated for 48 hrs by sulforhodamine B assay relative to control; type: functional; conditions: SF-295, 48 h, read-out: Activity
# MDA-MB-435 = assay: Growth inhibition of human MDA-MB-435 cells assessed as cell growth at 1 uM incubated for 48 hrs by sulforhodamine B assay relative to control; type: functional; conditions: MDA-MB-435, 48 h, read-out: Activity
# NCI-H322M = assay: Growth inhibition of human NCI-H322M cells assessed as cell growth at 0.01 uM incubated for 48 hrs by sulforhodamine B assay relative to control; type: functional; conditions: read-out: Activity
# SN12C = assay: Growth inhibition of human SN12C cells incubated for 48 hrs by sulforhodamine B assay; type: functional, cell-based
# OVCAR-5 = assay: Growth inhibition of human OVCAR5 cells incubated for 48 hrs by sulforhodamine B assay; type: functional, cell-based; conditions: OVCAR-5, 48 h
# ACHN = assay: Growth inhibition of human ACHN cells assessed as cell growth at 0.01 uM incubated for 48 hrs by sulforhodamine B assay relative to control; type: functional; conditions: read-out: Activity
# NCI-H460 = assay: Growth inhibition of human NCI-H460 cells incubated for 48 hrs by sulforhodamine B assay; type: functional, cell-based; conditions: NCI-H460, 48 h
# SW-620 = assay: Growth inhibition of human SW620 cells assessed as cell growth at 0.1 uM incubated for 48 hrs by sulforhodamine B assay relative to control; type: functional; conditions: SW-620, 48 h, read-out: Activity
# RPMI-8226 = assay: Growth inhibition of human RPMI8226 cells assessed as cell growth at 0.1 uM incubated for 48 hrs by sulforhodamine B assay relative to control; type: functional; conditions: RPMI-8226, 48 h, read-out: Activity
# MDA-MB-231 [4] = assay: Growth inhibition of human MDA-MB-231 cells incubated for 48 hrs by sulforhodamine B assay; type: functional, cell-based; conditions: MDA-MB-231, 48 h
# BT-549 [5] = assay: Growth inhibition of human BT549 cells incubated for 48 hrs by sulforhodamine B assay; type: functional, cell-based; conditions: BT-549, 48 h
# CAKI-1 = assay: Growth inhibition of human Caki1 cells incubated for 48 hrs by sulforhodamine B assay; type: functional, cell-based; conditions: CAKI-1, 48 h
# 786-0 [6] = assay: Growth inhibition of human 786-0 cells assessed as cell growth at 0.01 uM incubated for 48 hrs by sulforhodamine B assay relative to control; type: functional; conditions: 786-0, 48 h, read-out: Activity
# MDA-MB-468 = assay: Growth inhibition of human MDA-MB-468 cells assessed as cell growth at 0.1 uM incubated for 48 hrs by sulforhodamine B assay relative to control; type: functional; conditions: MDA-MB-468, 48 h, read-out: Activity
# HCC 2998 = assay: Growth inhibition of human HCC2998 cells assessed as cell growth at 0.1 uM incubated for 48 hrs by sulforhodamine B assay relative to control; type: functional; conditions: HCC 2998, 48 h, read-out: Activity
# PC-3 = assay: Growth inhibition of human PC3 cells assessed as cell growth at 100 uM incubated for 48 hrs by sulforhodamine B assay relative to control; type: functional; conditions: PC-3, 48 h, read-out: Activity
# NCI-H226 = assay: Growth inhibition of human NCI-H226 cells assessed as cell growth at 0.1 uM incubated for 48 hrs by sulforhodamine B assay relative to control; type: functional; conditions: NCI-H226, 48 h, read-out: Activity
# HL-60(TB) [7] = assay: Growth inhibition of human HL-60(TB) cells incubated for 48 hrs by sulforhodamine B assay; type: functional, cell-based; conditions: HL-60, 48 h
# HL-60(TB) [8] = assay: Growth inhibition of human HL-60(TB) cells assessed as cell growth at 0.01 uM incubated for 48 hrs by sulforhodamine B assay relative to control; type: functional; conditions: HL-60, 48 h, read-out: Activity
# MCF7 = assay: Growth inhibition of human MCF7 cells assessed as cell growth at 100 uM incubated for 48 hrs by sulforhodamine B assay relative to control; type: functional; conditions: MCF7, 48 h, read-out: Activity
# [9] = read-out: LC50 (the source's name)
# [10] = read-out: pLC50 (the source's name) (converted)
structure (smiles),measurement,setting,value
O=C(Nc1cccc(-n2cc(-c3ccncc3)c(-c3cc(O)cc(Cl)c3)n2)c1)c1cc(C(F)(F)F)cc(C(F)(F)F)c1,growth at 1 µM,T47D,57%
same,GI50,786-0 [1]; read-out: GI50,3.12 µM
same,CC50,786-0 [1]; [9],> 100 µM
same,TGI,786-0 [1]; read-out: TGI,21.1 µM
same,GI50,786-0 [1]; read-out: pGI50 (converted),3.09 µM
same,CC50,786-0 [1]; [10],> 100 µM
same,TGI,786-0 [1]; read-out: pTGI (converted),20.9 µM
same,growth at 0.01 µM,BT-549 [2],95%
same,growth at 100 µM,MDA-MB-231 [3],-84%
same,growth at 1 µM,RXF 393,78%
same,growth at 0.1 µM,OVCAR-4,104%
same,growth at 100 µM,SNB-19,34%
same,growth at 1 µM,SF-295,59%
same,growth at 1 µM,MDA-MB-435,88%
same,growth at 0.01 µM,NCI-H322M,103%
same,GI50,SN12C; read-out: GI50,4.77 µM
same,LC50,SN12C; read-out: LC50,> 100 µM
same,TGI,SN12C; read-out: TGI,> 100 µM
same,GI50,SN12C; read-out: pGI50 (converted),4.79 µM
same,LC50,SN12C; read-out: pLC50 (converted),> 100 µM
same,TGI,SN12C; read-out: pTGI (converted),> 100 µM
same,GI50,OVCAR-5; read-out: GI50,8.23 µM
same,CC50,OVCAR-5; [9],> 100 µM
same,TGI,OVCAR-5; read-out: TGI,38.4 µM
same,GI50,OVCAR-5; read-out: pGI50 (converted),8.32 µM
same,CC50,OVCAR-5; [10],> 100 µM
same,TGI,OVCAR-5; read-out: pTGI (converted),38 µM
same,growth at 0.01 µM,ACHN,105%
same,GI50,NCI-H460; read-out: GI50,3.04 µM
same,CC50,NCI-H460; [9],> 100 µM
same,TGI,NCI-H460; read-out: TGI,> 100 µM
same,GI50,NCI-H460; read-out: pGI50 (converted),3.02 µM
same,CC50,NCI-H460; [10],> 100 µM
same,TGI,NCI-H460; read-out: pTGI (converted),> 100 µM
same,growth at 0.1 µM,SW-620,98%
same,growth at 0.1 µM,RPMI-8226,105%
same,GI50,MDA-MB-231 [4]; read-out: GI50,1.42 µM
same,CC50,MDA-MB-231 [4]; [9],77.8 µM
same,TGI,MDA-MB-231 [4]; read-out: TGI,33.2 µM
same,GI50,MDA-MB-231 [4]; read-out: pGI50 (converted),1.41 µM
same,CC50,MDA-MB-231 [4]; [10],7.76 µM
same,TGI,MDA-MB-231 [4]; read-out: pTGI (converted),3.31 µM
same,GI50,BT-549 [5]; read-out: GI50,4.58 µM
same,CC50,BT-549 [5]; [9],> 100 µM
same,TGI,BT-549 [5]; read-out: TGI,48.8 µM
same,GI50,BT-549 [5]; read-out: pGI50 (converted),4.68 µM
same,CC50,BT-549 [5]; [10],> 100 µM
same,TGI,BT-549 [5]; read-out: pTGI (converted),46.8 µM
same,GI50,CAKI-1; read-out: GI50,3.57 µM
same,CC50,CAKI-1; [9],> 100 µM
same,TGI,CAKI-1; read-out: TGI,> 100 µM
same,GI50,CAKI-1; read-out: pGI50 (converted),3.63 µM
same,CC50,CAKI-1; [10],> 100 µM
same,TGI,CAKI-1; read-out: pTGI (converted),> 100 µM
same,growth at 0.01 µM,786-0 [6],94%
same,growth at 0.1 µM,MDA-MB-468,95%
same,growth at 0.1 µM,HCC 2998,95%
same,growth at 100 µM,PC-3,-8%
same,growth at 0.1 µM,NCI-H226,95%
O=C(Nc1cccc(-n2cc(-c3ccncc3)c(-c3cc(O)cc(Cl)c3)n2)c1)Nc1ccc(Cl)c(Cl)c1,growth at 1 µM,T47D,96%
same,GI50,786-0 [1]; read-out: GI50,1.48 µM
same,CC50,786-0 [1]; [9],9.31 µM
same,TGI,786-0 [1]; read-out: TGI,37.1 µM
same,GI50,786-0 [1]; read-out: pGI50 (converted),1.48 µM
same,CC50,786-0 [1]; [10],9.33 µM
same,TGI,786-0 [1]; read-out: pTGI (converted),3.72 µM
same,growth at 0.01 µM,BT-549 [2],94%
same,growth at 100 µM,MDA-MB-231 [3],-24%
same,growth at 1 µM,RXF 393,38%
same,growth at 0.1 µM,OVCAR-4,95%
same,GI50,HL-60(TB) [7]; read-out: GI50,3.02 µM
same,LC50,HL-60(TB) [7]; read-out: LC50,> 100 µM
same,GI50,HL-60(TB) [7]; read-out: pGI50 (converted),3.02 µM
same,LC50,HL-60(TB) [7]; read-out: pLC50 (converted),> 100 µM
same,growth at 100 µM,SNB-19,-26%
same,growth at 1 µM,SF-295,77%
same,growth at 1 µM,MDA-MB-435,79%
same,growth at 0.01 µM,NCI-H322M,52%
same,GI50,SN12C; read-out: GI50,2.78 µM
same,LC50,SN12C; read-out: LC50,> 100 µM
same,TGI,SN12C; read-out: TGI,10.1 µM
same,GI50,SN12C; read-out: pGI50 (converted),2.75 µM
same,LC50,SN12C; read-out: pLC50 (converted),> 100 µM
same,TGI,SN12C; read-out: pTGI (converted),18.2 µM
same,GI50,OVCAR-5; read-out: GI50,2.14 µM
same,CC50,OVCAR-5; [9],5.42 µM
same,TGI,OVCAR-5; read-out: TGI,51.6 µM
same,GI50,OVCAR-5; read-out: pGI50 (converted),2.14 µM
same,CC50,OVCAR-5; [10],53.7 µM
same,TGI,OVCAR-5; read-out: pTGI (converted),6.17 µM
same,growth at 0.01 µM,ACHN,91%
same,GI50,NCI-H460; read-out: GI50,2.18 µM
same,CC50,NCI-H460; [9],> 100 µM
same,TGI,NCI-H460; read-out: TGI,61.4 µM
same,GI50,NCI-H460; read-out: pGI50 (converted),2.19 µM
same,CC50,NCI-H460; [10],> 100 µM
same,TGI,NCI-H460; read-out: pTGI (converted),6.17 µM
same,growth at 0.1 µM,SW-620,99%
same,growth at 0.1 µM,RPMI-8226,103%
same,GI50,MDA-MB-231 [4]; read-out: GI50,1.01 µM
same,CC50,MDA-MB-231 [4]; [9],> 100 µM
same,TGI,MDA-MB-231 [4]; read-out: TGI,77 µM
same,GI50,MDA-MB-231 [4]; read-out: pGI50 (converted),1 µM
same,CC50,MDA-MB-231 [4]; [10],> 100 µM
same,TGI,MDA-MB-231 [4]; read-out: pTGI (converted),7.76 µM
same,GI50,BT-549 [5]; read-out: GI50,2.06 µM
same,CC50,BT-549 [5]; [9],> 100 µM
same,TGI,BT-549 [5]; read-out: TGI,52.2 µM
same,GI50,BT-549 [5]; read-out: pGI50 (converted),2.04 µM
same,CC50,BT-549 [5]; [10],> 100 µM
same,TGI,BT-549 [5]; read-out: pTGI (converted),5.25 µM
same,GI50,CAKI-1; read-out: GI50,2.21 µM
same,CC50,CAKI-1; [9],> 100 µM
same,TGI,CAKI-1; read-out: TGI,70.1 µM
same,GI50,CAKI-1; read-out: pGI50 (converted),2.19 µM
same,CC50,CAKI-1; [10],> 100 µM
same,TGI,CAKI-1; read-out: pTGI (converted),7.08 µM
same,growth at 0.01 µM,786-0 [6],92%
same,growth at 0.1 µM,MDA-MB-468,85%
same,growth at 0.01 µM,HL-60(TB) [8],93%
same,growth at 0.1 µM,HCC 2998,110%
same,growth at 100 µM,PC-3,-35%
same,growth at 0.1 µM,NCI-H226,89%
same,growth at 100 µM,MCF7,-2%
